IC50 and viability, T/C data for 5 compounds are collected here from PubChem BioAssay AID1963438 (Molecular Pharmacology Branch, DTP, NCI, 2024).

Values joined by “and” are separate entries in the source; they are usually repeats but may differ in a detail not shown here. Equal entries are not always repeated. Where only a bound is given, the exact number is not on record here.

The test concerns NCI-H510 multicellular tumor spheroid growth, % test/control. As to the kind of experiment: Anticancer human tumor NCI-H510 cell line growth inhibition [Asc].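 As to all read-outs here: spheroids exposed to agents for 7 days.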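 As to viability, T/C: 100% = DMSO vehicle control wells.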 The settings on record: for viability, T/C: stronger effect = lower value. The procedure, abridged:
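Concentration series start at each agent's clinical Cmax, or at 10 microM when none is established, and drop in half-log steps; agents are applied alone or together to complex spheroids built with HUVEC and hMSC.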

[1] abbreviates: curve of first compound, second compound 0.03 µM.
Where [2] appears, read: curve of first compound, second compound 0.0949 µM.
Where [3] appears, read: curve of first compound, second compound 0.3 µM.
The mark [4] stands for this setting: curve of first compound, second compound 0.949 µM.
Where [5] appears, read: curve of first compound, second compound 3 µM.
[6] abbreviates: second compound 0.03 µM, first compound 0.0316 µM.
[7] abbreviates: second compound 0.03 µM, first compound 0.1 µM.
Setting [8] is: second compound 0.03 µM, first compound 0.316 µM.
The mark [9] stands for this setting: second compound 0.03 µM, first compound 1 µM.
The mark [10] stands for this setting: second compound 0.0949 µM, first compound 0.0316 µM.
Setting [11] is: second compound 0.0949 µM, first compound 0.1 µM.
[12] abbreviates: second compound 0.0949 µM, first compound 0.316 µM.
The mark [13] stands for this setting: second compound 0.0949 µM, first compound 1 µM.
[14] abbreviates: second compound 0.3 µM, first compound 0.0316 µM.
[15] abbreviates: second compound 0.3 µM, first compound 0.1 µM.
Setting [16] is: second compound 0.3 µM, first compound 0.316 µM.
Setting [17] is: second compound 0.3 µM, first compound 1 µM.
Where [18] appears, read: second compound 0.949 µM, first compound 0.0316 µM.
Where [19] appears, read: second compound 0.949 µM, first compound 0.1 µM.
The mark [20] stands for this setting: second compound 0.949 µM, first compound 0.316 µM.
Where [21] appears, read: second compound 0.949 µM, first compound 1 µM.
The mark [22] stands for this setting: second compound 3 µM, first compound 0.0316 µM.
Where [23] appears, read: second compound 3 µM, first compound 0.1 µM.
Where [24] appears, read: second compound 3 µM, first compound 0.316 µM.
[25] abbreviates: second compound 3 µM, first compound 1 µM.

Turning to `C=CC(=O)N1CCN(c2nc(=O)n(-c3c(C)ccnc3C(C)C)c3nc(-c4c(O)cccc4F)c(F)cc23)C(C)C1` (stereo not given) + CCN1C(C(=O)NC23CCC(C(=O)O)(CC2)CC3)C(c2cccc(Cl)c2F)C2(C(=O)Nc3cc(Cl)ccc32)C12CCCCC2, the IC50 runs as follows: under setting [1], more than 10 µM; under setting [2], more than 10 µM; under setting [3], more than 10 µM; under setting [4], more than 10 µM; under setting [5], more than 10 µM. The viability, T/C is, setting by setting: under setting [6], 70.7%; under setting [7], 108%; under setting [8], 81%; under setting [9], 100%; (second compound 0.03 µM, first compound 3.16 µM) 90.2%; (second compound 0.03 µM, first compound 10 µM) 98.3%. Moreover, the viability, T/C was 117% under setting [10]; 117% under setting [11]; 98.5% under setting [12]; 105% under setting [13]; 96.8% (second compound 0.0949 µM, first compound 3.16 µM); 89.5% (second compound 0.0949 µM, first compound 10 µM). The viability, T/C under setting [14] was 90.3%; the viability, T/C under setting [15] was 103%; the viability, T/C under setting [16] is 91.5%; the viability, T/C under setting [17] was 101%; the viability, T/C (second compound 0.3 µM, first compound 3.16 µM) was 98.4%; the viability, T/C (second compound 0.3 µM, first compound 10 µM) was 95.6%. Also, the viability, T/C under setting [18] is 100%; the viability, T/C under setting [19] is 107%; the viability, T/C under setting [20] was 109%; the viability, T/C under setting [21] was 104%; the viability, T/C (second compound 0.949 µM, first compound 3.16 µM) was 91.3%; the viability, T/C (second compound 0.949 µM, first compound 10 µM) was 92.4%. The viability, T/C is, setting by setting: under setting [22], 116%; under setting [23], 97.8%; under setting [24], 85.3%; under setting [25], 101%; (second compound 3 µM, first compound 3.16 µM) 103%; (second compound 3 µM, first compound 10 µM) 79.2%.

For `CCN1C(C(=O)NC23CCC(C(=O)O)(CC2)CC3)C(c2cccc(Cl)c2F)C2(C(=O)Nc3cc(Cl)ccc32)C12CCCCC2` (stereo not given), the viability, T/C (compound 0.00949 µM) is 103% and 92.8%. Also, the IC50 (compound alone, run of 10/11/2022) is more than 3 µM and the IC50 (curve of compound) is more than 3 µM.

As for `CCN1C(C(=O)NC23CCC(C(=O)O)(CC2)CC3)C(c2cccc(Cl)c2F)C2(C(=O)Nc3cc(Cl)ccc32)C12CCCCC2` (stereo not given) + Cc1c(S(C)(=O)=O)c(-c2cc(F)cc(N3CCN(c4ccc(NS(=O)(=O)c5ccc(NC(CCN6CCC(C(=O)OCCCP(=O)(O)O)CC6)CSc6ccccc6)c(S(=O)(=O)C(F)(F)F)c5)cc4)CC3)c2)c(-c2ccc(Cl)cc2)n1C(C)C, the IC50 (curve of first compound, second compound 0.1 µM) was more than 3 µM; the IC50 (curve of first compound, second compound 0.316 µM) was more than 3 µM; the IC50 (curve of first compound, second compound 1 µM) is more than 3 µM; the IC50 (curve of first compound, second compound 3.16 µM) is more than 3 µM; the IC50 (curve of first compound, second compound 10 µM) was more than 3 µM. The viability, T/C is 101% (second compound 0.1 µM, first compound 0.00949 µM); 97.6% (second compound 0.1 µM, first compound 0.03 µM); 95.5% (second compound 0.1 µM, first compound 0.0949 µM); 96.3% (second compound 0.1 µM, first compound 0.3 µM); 80.3% (second compound 0.1 µM, first compound 0.949 µM); 104% (second compound 0.1 µM, first compound 3 µM). In addition, the viability, T/C reads like this: (second compound 0.316 µM, first compound 0.00949 µM) 86.3%; (second compound 0.316 µM, first compound 0.03 µM) 105%; (second compound 0.316 µM, first compound 0.0949 µM) 94.8%; (second compound 0.316 µM, first compound 0.3 µM) 94.9%; (second compound 0.316 µM, first compound 0.949 µM) 88.9%; (second compound 0.316 µM, first compound 3 µM) 83.6%. Moreover, the viability, T/C was 103% (second compound 1 µM, first compound 0.00949 µM); 82% (second compound 1 µM, first compound 0.03 µM); 104% (second compound 1 µM, first compound 0.0949 µM); 99.5% (second compound 1 µM, first compound 0.3 µM); 103% (second compound 1 µM, first compound 0.949 µM); 95% (second compound 1 µM, first compound 3 µM). The viability, T/C was 88.7% (second compound 3.16 µM, first compound 0.00949 µM); 103% (second compound 3.16 µM, first compound 0.03 µM); 96.4% (second compound 3.16 µM, first compound 0.0949 µM); 114% (second compound 3.16 µM, first compound 0.3 µM); 68% (second compound 3.16 µM, first compound 0.949 µM); 85.1% (second compound 3.16 µM, first compound 3 µM). The viability, T/C reads like this: (second compound 10 µM, first compound 0.00949 µM) 109%; (second compound 10 µM, first compound 0.03 µM) 84%; (second compound 10 µM, first compound 0.0949 µM) 87.3%; (second compound 10 µM, first compound 0.3 µM) 59.1%; (second compound 10 µM, first compound 0.949 µM) 72.8%; (second compound 10 µM, first compound 3 µM) 56.3%.

Regarding `CCN1CCN(Cc2ccc(Nc3ncc(F)c(-c4cc(F)c5nc(C)n(C(C)C)c5c4)n3)nc2)CC1` + CCN1C(C(=O)NC23CCC(C(=O)O)(CC2)CC3)C(c2cccc(Cl)c2F)C2(C(=O)Nc3cc(Cl)ccc32)C12CCCCC2, the IC50 was more than 1 µM under setting [1]; more than 1 µM under setting [2]; more than 1 µM under setting [3]; more than 1 µM under setting [4]; more than 1 µM under setting [5]. Moreover, the viability, T/C reads like this: (second compound 0.03 µM, first compound 0.00316 µM) 100%; (second compound 0.03 µM, first compound 0.01 µM) 88%; under setting [6], 99.1%; under setting [7], 129%; under setting [8], 123%; under setting [9], 75.7%. In addition, the viability, T/C was 97.4% (second compound 0.0949 µM, first compound 0.00316 µM); 116% (second compound 0.0949 µM, first compound 0.01 µM); 121% under setting [10]; 110% under setting [11]; 105% under setting [12]; 87.5% under setting [13]. Besides, the viability, T/C runs as follows: (second compound 0.3 µM, first compound 0.00316 µM) 119%; (second compound 0.3 µM, first compound 0.01 µM) 114%; under setting [14], 74.9%; under setting [15], 86.1%; under setting [16], 106%; under setting [17], 88.7%. The viability, T/C is 105% (second compound 0.949 µM, first compound 0.00316 µM); 107% (second compound 0.949 µM, first compound 0.01 µM); 123% under setting [18]; 74.5% under setting [19]; 107% under setting [20]; 106% under setting [21]. Besides, the viability, T/C is 98.2% (second compound 3 µM, first compound 0.00316 µM); 127% (second compound 3 µM, first compound 0.01 µM); 128% under setting [22]; 76.1% under setting [23]; 113% under setting [24]; 83.1% under setting [25].

Take `O=C(c1ccc(F)c(F)c1Nc1ccc(I)cc1F)N1CC(O)([C@@H]2CCCCN2)C1`: the viability, T/C was 80.5% and 85.3% and 98% (compound 0.00316 µM); 119% and 91% and 90.4% (compound 0.01 µM); 95.7% and 106% and 86.9% (compound 0.0316 µM); 97.4% and 102% and 86.8% (compound 0.1 µM); 110% and 89% and 87.3% (compound 0.316 µM); 72.5% and 86% and 83.7% (compound 1 µM). Besides, the IC50 (curve of compound) was more than 1 µM.

As usually defined, the IC50 is the concentration needed to halve the response being measured. One may read the viability, T/C as the ratio of treated to control.
